Laboratory results published in PubChem BioAssay (NCI).
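Five compound concentrations were applied to cells in 96-well plates for 48 hours; endpoints were derived by simple linear interpolation of the resulting dose-response curve. GI50 = concentration required for 50% inhibition of growth. TGI: concentration producing complete growth inhibition.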

How the values were obtained:
Test in all cases: NCI anticancer screen, dose series, 48 h
CAKI-1 renal = tested on: CAKI-1 renal
K-562 leukemia = tested on: K-562 leukemia
MALME-3M melanoma = tested on: MALME-3M melanoma
MCF7 breast = tested on: MCF7 breast
MDA-MB-231 breast = tested on: MDA-MB-231 breast
NCI-H460 lung = tested on: NCI-H460 lung
PC-3 prostate = tested on: PC-3 prostate
SNB-19 CNS = tested on: SNB-19 CNS
TK-10 renal = tested on: TK-10 renal

SMILES	GI50 (CAKI-1 renal)	TGI (CAKI-1 renal)	GI50 (K-562 leukemia)	TGI (K-562 leukemia)	GI50 (MALME-3M melanoma)	TGI (MALME-3M melanoma)	GI50 (MCF7 breast)	TGI (MCF7 breast)	GI50 (MDA-MB-231 breast)	TGI (MDA-MB-231 breast)	GI50 (NCI-H460 lung)	TGI (NCI-H460 lung)	GI50 (PC-3 prostate)	TGI (PC-3 prostate)	GI50 (SNB-19 CNS)	TGI (SNB-19 CNS)	GI50 (TK-10 renal)	TGI (TK-10 renal)
N#Cc1c(-c2ccccc2)nc(SCC2CO2)nc1N1CCOCC1 (centres undefined)	1.07 µM	17 µM	> 47.2 µM	> 100 µM	2.32 µM	> 68.3 µM	3.06 µM	> 100 µM	15.8 µM	> 100 µM	6.59 µM	> 100 µM	6.19 µM	> 100 µM	64.4 µM	> 100 µM	4.88 µM	99 µM
OC(c1cccc(-n2ccc(C(F)(F)F)n2)c1)c1cnccc1NC1CCCCCC1 (centres undefined)	1.57 µM	2.96 µM	1.37 µM	4.96 µM	1.71 µM	3.23 µM	1.53 µM	3.11 µM	1.69 µM	3.16 µM	1.84 µM	3.42 µM	1.59 µM	3.09 µM	1.73 µM	3.24 µM	1.77 µM	3.49 µM
COc1cc2c(cc1O)CC[C@@H]1[C@@H]2CC[C@]2(C)[C@@H](NCCN(C)C)CC[C@@H]12	0.464 µM	0.945 µM	0.0886 µM	0.395 µM	0.19 µM	0.669 µM	0.127 µM	0.514 µM	0.0979 µM	0.391 µM	0.324 µM	0.823 µM	0.188 µM	0.599 µM	0.4 µM	0.966 µM	0.467 µM	0.932 µM
CC1(C)N=C(N)N=C(N)N1c1cccc(CCCCc2cccc(S(=O)(=O)F)c2)c1	20.3 µM	> 100 µM	0.657 µM	> 100 µM	8.47 µM	71.8 µM	0.485 µM	24.9 µM	6.6 µM	> 100 µM	0.327 µM	> 75.7 µM	0.157 µM	> 100 µM	1.53 µM	> 77.7 µM	4.85 µM	> 100 µM
COc1cc(C(=O)/C=C/c2c(C)n([O-])c3ccc(C)cc3[n+]2=O)cc(OC)c1OC	2.2 µM		2.8 µM	> 24.7 µM	2.24 µM	5.2 µM	3.3 µM	12.5 µM	10.6 µM	> 100 µM	14.7 µM	36.9 µM	12.9 µM	> 59.3 µM	20.8 µM	46 µM	3.77 µM	> 34.6 µM
